The NIST ThermoML archive (doi:10.1016/j.jct.2015.07.005)
Values joined by “and” are separate entries in the source; they are usually repeats but may differ in a detail not shown here. Identical values can stand only once.

Details: Gas, Frequency=0.005 MHz, Spherical cavity resonance method

CC [ethane]
Details	speed of sound
280.01 K, 500.43 kPa	294.64 m/s and 294.65 m/s and 294.64 m/s
280.02 K, 500.43 kPa	294.65 m/s and 294.65 m/s
280.02 K, 500.44 kPa	294.65 m/s
319.55 K, 463.5 kPa	316.22 m/s
319.55 K, 463.51 kPa	316.22 m/s
319.95 K, 464.08 kPa	316.4 m/s
319.95 K, 464.09 kPa	316.4 m/s
324.99 K, 479.74 kPa	318.64 m/s
324.99 K, 479.75 kPa	318.65 m/s
325 K, 479.75 kPa	318.65 m/s and 318.65 m/s
325 K, 479.76 kPa	318.65 m/s
339.37 K, 492.93 kPa	325.4 m/s
339.89 K, 493.66 kPa	325.64 m/s
359.27 K, 522.1 kPa	334.3 m/s
359.27 K, 522.11 kPa	334.3 m/s
359.85 K, 523.03 kPa	334.57 m/s and 334.57 m/s
365 K, 479.42 kPa	337.34 m/s and 337.34 m/s
365.01 K, 479.42 kPa	337.35 m/s and 337.35 m/s
365.01 K, 479.43 kPa	337.34 m/s and 337.35 m/s
379.19 K, 551.11 kPa	342.95 m/s
379.76 K, 551.9 kPa	343.19 m/s
379.77 K, 551.9 kPa	343.19 m/s
399.22 K, 579.97 kPa	351.41 m/s
399.8 K, 580.93 kPa	351.69 m/s and 351.69 m/s
404.98 K, 531.39 kPa	354.23 m/s
404.98 K, 531.4 kPa	354.23 m/s
404.98 K, 531.41 kPa	354.22 m/s
419.45 K, 608.87 kPa	359.75 m/s
419.46 K, 608.88 kPa	359.76 m/s
419.91 K, 609.51 kPa	359.94 m/s
419.92 K, 609.52 kPa	359.95 m/s
444.98 K, 496.44 kPa	370.72 m/s
444.98 K, 496.45 kPa	370.72 m/s and 370.72 m/s and 370.72 m/s
444.99 K, 496.45 kPa	370.72 m/s
484.95 K, 497.52 kPa	386.13 m/s
484.95 K, 497.53 kPa	386.13 m/s
484.95 K, 497.54 kPa	386.13 m/s
484.95 K, 497.55 kPa	386.14 m/s
484.95 K, 497.56 kPa	386.14 m/s
484.96 K, 497.55 kPa	386.14 m/s and 386.14 m/s
484.96 K, 539.51 kPa	386 m/s
484.96 K, 539.52 kPa	386 m/s and 386 m/s
